Activity calls are given as the source filed them. The rule behind the calls is not given here.
What was measured:
[1] = Cytotoxicity against C57BL/6J mouse peritoneal macrophages assessed as reduction of cell viability at 1 uM incubated for 24 hrs in presence of LPS by MTT assay; type: cell-based, Peritoneal macrophage
[2] = test system: Peritoneal macrophage; experiment: Inhibition of LPS-induced NO production in C57BL/6J mouse peritoneal macrophages at 1 uM measured after 24 hrs in presence of LPS by Griess reagent based assay relative to control; type: functional
[3] = test system: Mus musculus; experiment: Anti-aplastic anaemia in immune-mediated bone marrow failure BALB/c mouse model assessed as increase in eosinophils count at 2.5 to 10 mg/kg, po administered for 14 days and measured on day 14 by automated micro-analyzer; type: functional, organism-based; settings: dose 2.5-10 mg/kg, time 14.0 day
[4] = test system: Peritoneal macrophage; experiment: Inhibition of LPS-induced NO production in C57BL/6J mouse peritoneal macrophages at 10 uM measured after 24 hrs in presence of LPS by Griess reagent based assay relative to control; type: functional
[5] = biological target: Voltage-gated inwardly rectifying potassium channel KCNH2 (Homo sapiens, UniProt Q12809); experiment: Inhibition of human ERG expressed in CHO cells measured after 24 hrs by patch clamp assay; type: cell-based
Voltage-gated inwardly rectifying potassium channel KCNH2, sequence (Q12809 whole entry): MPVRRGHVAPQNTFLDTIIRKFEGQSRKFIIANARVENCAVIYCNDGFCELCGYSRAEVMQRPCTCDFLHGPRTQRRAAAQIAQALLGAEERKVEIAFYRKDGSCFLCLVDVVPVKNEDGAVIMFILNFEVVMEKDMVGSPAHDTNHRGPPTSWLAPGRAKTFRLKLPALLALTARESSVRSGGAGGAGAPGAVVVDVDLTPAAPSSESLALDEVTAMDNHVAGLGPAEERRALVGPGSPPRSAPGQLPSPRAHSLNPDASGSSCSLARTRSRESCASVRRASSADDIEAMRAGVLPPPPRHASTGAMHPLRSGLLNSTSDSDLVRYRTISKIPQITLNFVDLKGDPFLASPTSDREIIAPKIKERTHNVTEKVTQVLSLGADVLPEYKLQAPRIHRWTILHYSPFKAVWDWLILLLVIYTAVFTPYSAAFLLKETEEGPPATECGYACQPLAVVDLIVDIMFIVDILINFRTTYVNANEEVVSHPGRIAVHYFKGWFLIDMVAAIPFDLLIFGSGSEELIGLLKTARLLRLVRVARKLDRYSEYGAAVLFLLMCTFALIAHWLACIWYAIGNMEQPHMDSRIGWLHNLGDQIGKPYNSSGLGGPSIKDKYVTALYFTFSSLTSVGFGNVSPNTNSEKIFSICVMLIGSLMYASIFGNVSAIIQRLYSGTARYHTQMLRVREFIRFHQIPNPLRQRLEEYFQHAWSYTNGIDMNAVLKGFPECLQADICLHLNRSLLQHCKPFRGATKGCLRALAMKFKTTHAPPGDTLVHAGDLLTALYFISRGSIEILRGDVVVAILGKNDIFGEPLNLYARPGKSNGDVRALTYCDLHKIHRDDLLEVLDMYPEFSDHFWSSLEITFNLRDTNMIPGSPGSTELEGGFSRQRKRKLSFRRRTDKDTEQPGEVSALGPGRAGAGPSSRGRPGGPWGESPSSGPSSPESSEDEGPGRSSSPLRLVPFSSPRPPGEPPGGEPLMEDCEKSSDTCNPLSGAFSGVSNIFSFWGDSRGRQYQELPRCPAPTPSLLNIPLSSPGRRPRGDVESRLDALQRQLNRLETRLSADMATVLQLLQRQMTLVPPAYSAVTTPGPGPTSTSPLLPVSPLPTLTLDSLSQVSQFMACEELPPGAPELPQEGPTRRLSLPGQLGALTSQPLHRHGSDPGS

[6] = Cytotoxicity against C57BL/6 mouse primary CD8-positive T lymphocytes assessed as effect on cell viability at 1 to 5 uM incubated for 48 hrs by CCK8 assay; type: tissue-based; settings: dose 1-5 µM
[7] = Inhibition of hematopoietic negative regulators release in CD3/CD28 antibody-stimulated C57BL/6 mouse primary CD8-positive T lymphocytes assessed as suppression of IFN-gamma release measured after 48 hrs by ELISA; type: functional, tissue-based; settings: C57BL/6, CD8-positive T cell
[8] = test system: Mus musculus; experiment: Anti-aplastic anaemia in immune-mediated bone marrow failure BALB/c mouse model assessed as increase in hemoglobin content at 2.5 to 10 mg/kg, po administered for 14 days and measured on day 14 by automated micro-analyzer; type: functional, organism-based; settings: dose 2.5-10 mg/kg, time 14.0 day
[9] = test system: Mus musculus; experiment: Anti-aplastic anaemia in immune-mediated bone marrow failure BALB/c mouse model assessed as increase in ratio of nucleated cell to erythroid cell counts in femur at 2.5 to 10 mg/kg, po administered for 14 days and measured on day 14 by Hematoxylin-Eosin staining based analysis; type: functional, organism-based; settings: dose 2.5-10 mg/kg, time 14.0 day
[10] = test system: Mus musculus; experiment: Anti-aplastic anaemia in immune-mediated bone marrow failure BALB/c mouse model assessed as increase in thymus index at 2.5 to 10 mg/kg, po administered for 14 days; type: functional, organism-based; settings: dose 2.5-10 mg/kg, time 14.0 day
[11] = test system: Mus musculus; experiment: Anti-aplastic anaemia in immune-mediated bone marrow failure BALB/c mouse model assessed as increase in WBC count at 2.5 to 10 mg/kg, po administered for 14 days and measured on day 14 by automated micro-analyzer; type: functional, organism-based; settings: dose 2.5-10 mg/kg, time 14.0 day
[12] = Cytotoxicity against C57BL/6J mouse peritoneal macrophages assessed as reduction of cell viability at 10 uM incubated for 24 hrs in presence of LPS by MTT assay; type: cell-based, Peritoneal macrophage
[13] = Inhibition of mouse CTLL-2 cells activity incubated for 24 hrs; type: functional, cell-based
[14] = Inhibition of CD3/CD28 antibody-stimulated C57BL/6 mouse primary CD8-positive T lymphocytes activation assessed as proportion of CD69-positive cells at 3 uM incubated for 48 hrs by flow cytometry (reference value: 93.42%); type: functional, CD8-positive T cell; design: scale not given: the % may be the effect or the level left
[15] = test system: Mus musculus; experiment: Anti-aplastic anaemia in immune-mediated bone marrow failure BALB/c mouse model assessed as increase in plateletcrit at 2.5 to 10 mg/kg, po administered for 14 days and measured on day 14 by automated micro-analyzer; type: functional, organism-based; settings: dose 2.5-10 mg/kg, time 14.0 day
[16] = Acute toxicity in Kunming mouse assessed as animal survival without abnormal state at 5 to 10 g/kg, po administered as single dose; type: organism-based; settings: in vivo, dose 5-10 g/Kg
[17] = Inhibition of CD3/CD28 antibody-stimulated C57BL/6 mouse primary CD8-positive T lymphocytes activation assessed as proportion of CD69-positive cells at 5 uM incubated for 48 hrs by flow cytometry (reference value: 93.42%); type: functional, CD8-positive T cell; design: scale not given: the % may be the effect or the level left
[18] = test system: Mus musculus; experiment: Anti-aplastic anaemia in immune-mediated bone marrow failure BALB/c mouse model assessed as increase in immature reticulocytes administered orally for 14 days and measured on day 14 by automated micro-analyzer; type: functional, organism-based; settings: dose 2.5-10 mg/kg, time 14.0 day
[19] = test system: CD8-positive T cell; experiment: Inhibition of CD3/CD28 antibody-stimulated C57BL/6 mouse primary CD8-positive T lymphocytes proliferation at 1 to 5 uM incubated for 48 hrs by CFSE staining based flow cytometry; type: functional, tissue-based; settings: dose 1-5 µM
[20] = test system: Mus musculus; experiment: Anti-aplastic anaemia in immune-mediated bone marrow failure BALB/c mouse model assessed as increase in RBC count at 2.5 to 10 mg/kg, po administered for 14 days and measured on day 14 by automated micro-analyzer; type: functional, organism-based; settings: dose 2.5-10 mg/kg, time 14.0 day
[21] = biological target: hERG (KCNH2) (Homo sapiens, UniProt Q12809); experiment: Inhibition of human ERG expressed in CHO cells measured after 24 hrs by patch clamp assay relative to control; type: cell-based; settings: CHO cells expressing human ERG
hERG (KCNH2), sequence (Q12809 whole entry): as above

[22] = test system: Mus musculus; experiment: Anti-aplastic anaemia in immune-mediated bone marrow failure BALB/c mouse model assessed as reduction in histopathological changes in femur at 2.5 to 10 mg/kg, po administered for 14 days and measured on day 14 by Hematoxylin-Eosin staining based analysis; type: functional, organism-based; settings: dose 2.5-10 mg/kg, time 14.0 day
[23] = test system: Mus musculus; experiment: Anti-aplastic anaemia in immune-mediated bone marrow failure BALB/c mouse model assessed as slowing down the weight loss at 2.5 to 10 mg/kg, po administered for 14 days; type: functional, organism-based; settings: dose 2.5-10 mg/kg, time 14.0 day
[24] = test system: Mus musculus; experiment: Anti-aplastic anaemia in immune-mediated bone marrow failure BALB/c mouse model assessed as increase in nucleated cell counts in femur at 2.5 to 10 mg/kg, po administered for 14 days and measured on day 14 by Hematoxylin-Eosin staining based analysis; type: functional, organism-based; settings: dose 2.5-10 mg/kg, time 14.0 day
[25] = Inhibition of hematopoietic negative regulators release in CD3/CD28 antibody-stimulated C57BL/6 mouse primary CD8-positive T lymphocytes assessed as suppression of TNF-alpha release measured after 48 hrs by ELISA; type: functional, tissue-based; settings: C57BL/6, CD8-positive T cell
[26] = test system: Mus musculus; experiment: Anti-aplastic anaemia in immune-mediated bone marrow failure BALB/c mouse model assessed as increase in neutrophils count at 2.5 to 10 mg/kg, po administered for 14 days and measured on day 14 by automated micro-analyzer; type: functional, organism-based; settings: dose 2.5-10 mg/kg, time 14.0 day
[27] = test system: CD8-positive T cell; experiment: Inhibition of CD3/CD28 antibody-stimulated C57BL/6 mouse primary CD8-positive T lymphocytes proliferation assessed as reduction in cell viability incubated for 48 hrs by CCK8 assay; type: functional, tissue-based; settings: dose 1-10 µM
[28] = test system: CD8-positive T cell; experiment: Inhibition of aerobic glycolysis in CD3/CD28 antibody-stimulated C57BL/6 mouse primary CD8-positive T lymphocytes assessed as reduction in glucose consumption at 1 to 5 uM incubated for 48 hrs; type: functional, tissue-based; settings: dose 1-5 µM
[29] = test system: Mus musculus; experiment: Anti-aplastic anaemia in immune-mediated bone marrow failure BALB/c mouse model assessed as increase in spleen index at 2.5 to 10 mg/kg, po administered for 14 days; type: functional, organism-based; settings: dose 2.5-10 mg/kg, time 14.0 day
[30] = Inhibition of IFN-gamma release in mouse CTLL-2 cells measured after 24 hrs by ELISA; type: functional, cell-based; settings: CTLL-2, 24 h
[31] = test system: Mus musculus; experiment: Anti-aplastic anaemia in immune-mediated bone marrow failure BALB/c mouse model assessed as increase in platelet count at 2.5 to 10 mg/kg, po administered for 14 days and measured on day 14 by automated micro-analyzer; type: functional, organism-based; settings: dose 2.5-10 mg/kg, time 14.0 day
[32] = Acute toxicity in po dosed Kunming mouse; type: organism-based; settings: in vivo
[33] = test system: CD8-positive T cell; experiment: Inhibition of aerobic glycolysis in CD3/CD28 antibody-stimulated C57BL/6 mouse primary CD8-positive T lymphocytes assessed as reduction in lactate production at 1 to 5 uM incubated for 48 hrs; type: functional, tissue-based; settings: dose 1-5 µM
[34] = test system: Mus musculus; experiment: Anti-aplastic anaemia in immune-mediated bone marrow failure BALB/c mouse model assessed as prevention of food intake decrease at 2.5 to 10 mg/kg, po administered for 14 days; type: functional, organism-based; settings: dose 2.5-10 mg/kg, time 14.0 day
[35] = Inhibition of mouse CTLL-2 cells activity at 10 uM incubated for 24 hrs; type: functional
[36] = test system: Mus musculus; experiment: Anti-aplastic anaemia in immune-mediated bone marrow failure BALB/c mouse model assessed as increase in hematocrit content at 2.5 to 10 mg/kg, po administered for 14 days and measured on day 14 by automated micro-analyzer; type: functional, organism-based; settings: dose 2.5-10 mg/kg, time 14.0 day
[37] = Inhibition of CD3/CD28 antibody-stimulated C57BL/6 mouse primary CD8-positive T lymphocytes activation assessed as proportion of CD69-positive cells at 1 uM incubated for 48 hrs by flow cytometry (reference value: 93.42%); type: functional, CD8-positive T cell; design: scale not given: the % may be the effect or the level left

## C[C@@H]1C[C@H]2[C@@H]3CCC4=CC(=O)C=C[C@]4(C)[C@@]3(F)[C@@H](O)C[C@]2(C)[C@@]1(O)C(=O)CO [DEXAMETHASONE]
[1]
  inhibition at 24 h, 1 µM: 17%
[2]
  inhibition at 1 µM: 62.8%

## COC1=C[C@@H]2[C@@H]3Cc4c(COC(=O)/C=C/c5ccccc5)cc(OC)c(OC(=O)/C=C/c5ccccc5)c4[C@]2(CCN3C)CC1=O
[3]
  Activity: Active
[4]
  inhibition at 10 µM: 97.1%
[5]
  IC50: > 30 µM
[6]
  Activity: Non-Toxic
[7]
  IC50: 3.2 µM
[8]
  Activity: Active
[9]
  Activity: Active
[10]
  Activity: Active
[11]
  Activity: Active
[12]
  inhibition at 24 h, 10 µM: 6.4%
[13]
  IC50: 2.3 µM
[14]
  Activity: 80.87%
[15]
  Activity: Active
[16]
  Survival: 14 days
[17]
  Activity: 76.97%
[18]
  Activity: Active
[19]
  inhibition: Active
[20]
  Activity: Active
[21]
  inhibition at 24 h: 26.2%
[22]
  Activity: Active
[23]
  Activity: Active
[24]
  Activity: Active
[25]
  IC50: 4.4 µM
[26]
  Activity: Active
[27]
  inhibition: Dose-Dependent Effect
[28]
  inhibition: Active
[29]
  Activity: Active
[30]
  IC50: 4.5 µM
[31]
  Activity: Active
[32]
  LD50: > 10000 mg/kg
[33]
  inhibition: Active
[34]
  Activity: Active
[35]
  inhibition at 10 µM: 98.1%
[36]
  Activity: Active
[37]
  Activity: 89.37%

## CCCCCCCCCCCCCC(=O)Oc1c(OC)cc(C=O)c2c1[C@@]13CCN(C)[C@@H](C2)[C@H]1C=C(OC)C(=O)C3
[4]
  inhibition at 10 µM: 33.9%
[12]
  inhibition at 24 h, 10 µM: 0.5%
[13]
  IC50: 3.7 µM
[35]
  inhibition at 10 µM: 90.8%

## C=CCCCCCCCCC(=O)Oc1c(OC)ccc2c1[C@@]13CCN(C)[C@@H](C2)[C@H]1C=C(OC)C(=O)C3
[4]
  inhibition at 10 µM: 94%
[12]
  inhibition at 24 h, 10 µM: 8.8%
[13]
  IC50: 7.6 µM
[35]
  inhibition at 10 µM: 52.8%

## CCCCCCCCCCCCCCCC(=O)OCc1cc(OC)c(OC(=O)CCCCCCCCCCCCCCC)c2c1C[C@H]1[C@H]3C=C(OC)C(=O)C[C@@]23CCN1C
[4]
  inhibition at 10 µM: -2.4%
[12]
  inhibition at 24 h, 10 µM: 5.3%
[35]
  inhibition at 10 µM: 20.5%

## CCCCCCCCCCCCCC(=O)Oc1c(OC)ccc2c1[C@@]13CCN(C)[C@@H](C2)[C@H]1C[C@@H](OC)C(=O)C3
[4]
  inhibition at 10 µM: 46.2%
[12]
  inhibition at 24 h, 10 µM: 4.6%
[13]
  IC50: 6.7 µM
[35]
  inhibition at 10 µM: 98.3%

## CCCCCCCCCCCC(=O)Oc1c(OC)cc(C=O)c2c1[C@@]13CCN(C)[C@@H](C2)[C@H]1C=C(OC)C(=O)C3
[4]
  inhibition at 10 µM: 2.2%
[12]
  inhibition at 24 h, 10 µM: 0%
[35]
  inhibition at 10 µM: 25.2%

## COc1ccc2c(c1OC(=O)/C=C/c1ccccc1)[C@@]13CCN(C)[C@@H](C2)[C@H]1C[C@@H](OC)C(=O)C3
[4]
  inhibition at 10 µM: 57.4%
[12]
  inhibition at 24 h, 10 µM: 4.8%
[35]
  inhibition at 10 µM: 11.6%

## CCCCCCCCCCCC(=O)Oc1c(OC)ccc2c1[C@@]13CCN(C)[C@@H](C2)[C@H]1C[C@@H](OC)C(=O)C3
[4]
  inhibition at 10 µM: 5%
[12]
  inhibition at 24 h, 10 µM: 3.1%
[13]
  IC50: 4.4 µM
[35]
  inhibition at 10 µM: 96.7%
